From patent US20140030368A1, “COMPOSITION FOR PREVENTING OR TREATING A RESPIRATORY DISEASE CONTAINING A MIXED HERBAL EXTRACT OF CNIDIUM OFFICINALE ROOT AND POLYGONI CUSPIDATI ROOT” (WHANIN PHARMACEUTICAL CO., LTD., priority 2011, published 2014) come the findings set out here.

In test [1] the target is T1, 5-lipoxygenase (Rattus norvegicus, UniProt P12527).
T1 construct: rat basophilic leukemia cells (RBL-1) were stabilized using serum-free RPMI medium; endogenous in cells; host or cells: RBL-1 (rat basophilic leukemia cells)
T1 sequence (P12527 whole entry): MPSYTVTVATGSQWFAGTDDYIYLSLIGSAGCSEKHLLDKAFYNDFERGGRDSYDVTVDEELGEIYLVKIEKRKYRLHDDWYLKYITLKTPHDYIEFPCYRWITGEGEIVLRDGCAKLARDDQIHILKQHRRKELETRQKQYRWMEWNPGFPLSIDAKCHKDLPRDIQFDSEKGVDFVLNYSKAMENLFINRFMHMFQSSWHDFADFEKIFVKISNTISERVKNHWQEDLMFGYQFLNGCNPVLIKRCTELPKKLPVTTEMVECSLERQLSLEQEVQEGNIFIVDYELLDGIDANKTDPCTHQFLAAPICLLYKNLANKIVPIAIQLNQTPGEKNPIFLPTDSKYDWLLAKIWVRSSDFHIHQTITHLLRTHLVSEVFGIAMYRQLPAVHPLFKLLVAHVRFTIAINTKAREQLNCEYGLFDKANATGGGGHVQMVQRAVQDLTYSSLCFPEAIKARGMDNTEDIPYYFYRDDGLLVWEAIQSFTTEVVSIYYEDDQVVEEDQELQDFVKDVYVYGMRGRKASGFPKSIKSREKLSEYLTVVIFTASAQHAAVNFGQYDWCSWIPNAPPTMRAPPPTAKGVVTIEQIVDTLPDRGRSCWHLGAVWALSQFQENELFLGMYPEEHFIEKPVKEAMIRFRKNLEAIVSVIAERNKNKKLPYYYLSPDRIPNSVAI
The test can be described thus: 5-Lipoxygenase inhibitory activity (leukotriene production in RBL-1 cells, cysteinyl leukotriene EIA). It counts as cell-based. The settings on record: RBL-1, read-out: 5-lipoxygenase inhibition rate(%). Here is the method: Specifically, rat basophilic leukemia cells (RBL-1) were stabilized using serum-free RPMI medium at 37° C., and each of the extracts and arachidonic acid as a substrate were added thereto and incubated for 15 minutes to produce leukotriene. The amount of the produced leukotriene was measured using a cysteinyl leukotriene EIA kit. As comparative drugs, the 5-lipoxygenase inhibitors zileuton and montelukast were used.

Test [2] can be described thus: Test for expectorant activity (phenol red in trachea). It counts as in vivo, mice. Here is the method:
Using the method of Engler et al. ([…]. Pharmacol. […] Jian-Hua Shang et al, J. Ethnopharmacology, 129, 293-298, 2010), the expectorant activity of the extract of the present invention was measured. […] Orientbio, Korea) were divided into groups, each consisting of 10 mice. […] After 30 minutes, the mice were subjected to cervical dislocation, and blood was discharged from the abdominal aorta, after which the trachea was completely excised. The isolated trachea was cold-stored in 1 ml of physiological saline.

Test [3] relates to croton oil-induced ear edema. Description: Croton oil-induced ear edema. The format is in vivo, mice. The settings on record: oral dose 100 mg/kg. How it is done: When croton oil is applied to the skin, an inflammatory reaction occurs to produce redness, a swelling and a blister on the applied surface (Archives of Pharmacal Research, 1993, 16[1], 18-24).
As experimental animals, male ICR mice (weighed 20-23 g; Orientbio, Korea) were divided into groups, each consisting of 10 mice. Each of the test samples and the comparative drug COX-2 inhibitor Celecoxib (100 mg/kg, Pfizer) was orally administered into the mice which have been fasted for one day, and after 1 hour, a solution of 3% croton oil in acetone was applied uniformly to the inner and outer sides of the right ear of each mouse to induce ear edema.

Test [4] concerns citric acid-induced coughing. Description: Test for antitussive activity (citric acid-induced coughing). The format is in vivo, guinea pigs. The settings on record: Oral dose 50 mg/kg. How it is done: In order to evaluate the antitussive activity of the extract of the present invention (American Journal of Respiratory and Critical Care Medicine, 1998, 158 [1], 42-48), the extract of Example 2 was administered into guinea pigs, and then citric acid was sprayed into the guinea pig to induce coughing, after which the number of coughs was measured. Citric acid is frequently used in studies on the activity of airway sensory nerves, and the inhalation of citric acid causes bronchoconstriction, nasal stimulation, coughing, bronchial hypersensitivity and the like.
Specifically, as experimental animals, Hartely male guinea pigs (weighed 350-400 g; Orientbio, Korea) were divided into groups, each consisting of 10-12 animals. Each of the extract of Example 2 and 50 mg/kg of the comparative drug theobromine (Sigma) was administered orally into the grouped mice which have been fasted for one day. After 1 hour, 0.3M citric acid as a cough inducer was sprayed into the animals to induce coughing.

In test [5] the test system is extracted bronchi of guinea pigs. Description: Test for bronchoconstriction (in vitro), ovalbumin-induced constriction of isolated sensitized bronchi. The settings on record: Cavia porcellus, read-out: Bronchoconstriction inhibition rate(%).
Description: The comparative drug rolipram was used at a concentration of 20 μM, and each of the extracts was used at a concentration of 0.3 mg/ml.
Specifically, Hartely male guinea pigs (400-500 g, BGI, Korea) were sensitized by intravenous injection with 2 ml/kg of anti-ovalbumin anti-serum. At 48 hours after sensitization, the guinea pigs were sacrificed and the bronchi were extracted therefrom. Then, other tissues attached to the bronchi were removed using a tyrode solution, and each of the bronchi was cut in a ring shape containing 2-3 cartilages. Then, the cartilage portion of the ring was excised while the bronchial muscle was preserved. Then, a string was connected to both sides of each bronchus which was then suspended in an organ bath and stabilized for a predetermined time. Then, 10 μg/ml of carbachol was added to induce the maximum constriction of the bronchi which were then washed with a tyrode solution and stabilized. Next, 5 μM of indomethacin was added to each bronchus, and after 1 minute, each of the extracts was added to each bronchi, and after 5 minutes, 20 μg/ml of ovalbumin was added to induce bronchoconstriction. […] The relaxation of the bronchi was measured using a physiological activity meter connected (powerlab 8/30, AD Instrument) with a force transducer (WPI).
Test [6] relates to leukocytes in the bronchoalveolar lavage. Description: Test for inhibition of bronchial inflammation, leukocytes in bronchoalveolar lavage of ovalbumin-sensitized mice. It counts as in vivo. The settings on record: oral 10 mg/kg b.i.d.
Description: Specifically, BALB/c female mice (6.5 weeks old, SLC, Japan) were sensitized by intraperitoneal administration of 0.2 ml of a 1:1 mixture of 10 μg of ovalbumin (OVA, Sigma) and 4 mg of aluminum hydroxide (Alum, Pierce) at days 0, 7 and 14. At 8 days and 10 days after the final sensitization, aerosol prepared from 1.0% ovalbumin using high-pressure compressed air was sprayed into the mice for 50 minutes to induce airway inflammation. As a comparative drug, 10 mg/kg of rolipram (Sigma) was used. The comparative drug and the test materials were orally administered twice (morning and evening) a day during a period ranging from 21 days to 23 days after the first sensitization. At 24 hours after the final induction of inflammation, the bronchoalveoli were laved with 1.5 ml of phosphate buffered saline (pH 7.2) to collect a bronchoalveolar lavage. The number of leukocytes in the lavage was counted using a hematology analyzer (Drew Scientific Inc., HEMAVET HV950FS, M-950HV).

A word on the inhibition: it is the relative decrease from the control value, in per cent. In the case of `CC(c1cc2ccccc2s1)N(O)C(N)=O` (stereo not shown) [Zileuton, zileuton], in test [1], the inhibition at 1 µM came out at 63%.
Regarding `Nc1c(Br)cc(Br)cc1CN[C@H]1CC[C@H](O)CC1` [Ambroxol, ambroxol], in test [2] (Oral dose 250 mg/kg), the “Expectorant activity (%)” value stood at 27%.
`Cc1ccc(-c2cc(C(F)(F)F)nn2-c2ccc(S(N)(=O)=O)cc2)cc1` [Celecoxib]: the “Ear edema inhibition rate (%)” value in test [3] is given as 17%.
Turning to `Cn1cnc2c1c(=O)[nH]c(=O)n2C` [theobromine], in test [4], the “Cough inhibition rate (%)” value is given as 36%.
Turning to `[Cl-].[Cl-].[Mg+2]` [Magnesium chloride], the “Expectorant activity (%)” value in test [2] (Oral dose 500 mg/kg) turned out to be 33%.
For the compound `COc1ccc(C2CNC(=O)C2)cc1OC1CCCC1` (stereo not shown) [rolipram], the inhibition at 20 µM in test [5] was 62%. Further, the “Inhibition rate (%) of pulmonary bronchial inflammation” value in test [6] was determined as 22%.
